Laboratory results published in patent publication US20240116985A1, “STAPLED PEPTIDES AND METHODS THEREOF” (priority 2020, published 2024).
Like-named read-outs stand apart in the source and are kept apart here.

Legend:
[1] = biological target: T1, full-length beta-Catenin (Uniprot ID P35222) (Homo sapiens, UniProt P35222); assay: Fluorescence polarization IC50 (beta-catenin / 5FAM-TCF4 10-53 competition); type: binding; conditions: fluorescence polarization; read-out: beta-Catenin FP IC50
T1 construct: 10 nM full-length beta-Catenin (Uniprot ID P35222)
T1 sequence (P35222 1-781): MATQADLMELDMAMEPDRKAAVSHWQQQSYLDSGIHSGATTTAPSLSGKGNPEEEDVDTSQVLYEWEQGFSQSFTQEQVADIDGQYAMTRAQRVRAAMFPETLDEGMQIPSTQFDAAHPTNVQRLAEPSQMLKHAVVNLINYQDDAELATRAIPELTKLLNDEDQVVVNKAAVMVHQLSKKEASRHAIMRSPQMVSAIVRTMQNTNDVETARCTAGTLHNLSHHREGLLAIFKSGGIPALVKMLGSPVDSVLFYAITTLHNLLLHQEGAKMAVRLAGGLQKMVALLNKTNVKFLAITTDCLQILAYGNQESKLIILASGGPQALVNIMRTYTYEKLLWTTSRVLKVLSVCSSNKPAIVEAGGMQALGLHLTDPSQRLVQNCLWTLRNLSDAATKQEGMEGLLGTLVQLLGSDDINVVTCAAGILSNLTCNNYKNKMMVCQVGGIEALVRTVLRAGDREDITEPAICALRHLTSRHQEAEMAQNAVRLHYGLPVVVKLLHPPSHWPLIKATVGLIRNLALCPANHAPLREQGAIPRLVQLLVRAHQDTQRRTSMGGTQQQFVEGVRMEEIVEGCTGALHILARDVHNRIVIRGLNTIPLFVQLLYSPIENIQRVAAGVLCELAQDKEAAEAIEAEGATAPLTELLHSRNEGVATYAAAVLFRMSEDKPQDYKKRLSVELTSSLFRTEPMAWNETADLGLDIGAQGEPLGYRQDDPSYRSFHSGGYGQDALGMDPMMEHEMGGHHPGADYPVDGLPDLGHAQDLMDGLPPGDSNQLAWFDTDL

[2] = biological target: T2, beta-catenin/TCF4 engagement (Homo sapiens, UniProt P35222); assay: Nano-BRET target engagement assay (B-cat-Halo & TCF4-Luc in HEK293 cells); type: cell-based; conditions: read-out: NanoBRET Abs IC50
T2 construct: expressed in transfected cells; host or cells: HEK293
T2 sequence (P35222 1-781): T1 sequence (P35222 1-781)

Row | Structure (SMILES) | IC50 [1] | IC50 ([2]; absolute IC50) | IC50 [2]
1 | CC(=O)N1CCC[C@]12CC=CCCCC1(CCCC=CCCCOC(=O)N3CC[C@@](C(=O)N[C@@H](Cc4ccccc4)C(=O)N[C@@H](Cc4csc5ccccc45)C(=O)N[C@@H](CCC(N)=O)C(N)=O)(C3)NC(=O)[C@H](CC(C)C)NC(=O)[C@H](Cc3ccccc3)NC(=O)[C@H](C)NC(=O)[C@H](CCO)NC(=O)[C@H](CCC(N)=O)NC(=O)[C@H](CC(=O)O)NC1=O)NC(=O)[C@H](CC1CCCCC1)NC(=O)[C@H](CC(N)=O)NC2=O (stereo partly drawn) [I-2354, Ac-PL3-Asn-Cha-B5-Asp-Gln-Hse-Ala-Phe-Leu-PyrS2-Phe-BztA-Gln-NH2] | 100 nM | > 20000 nM | –
2 | CC(=O)N1CCC[C@]12CC=CCCCC1(CCCC=CCCCOC(=O)N3CC[C@@](C(=O)N[C@@H](Cc4ccccc4C(F)(F)F)C(=O)N[C@@H](Cc4cccc(Cl)c4)C(=O)N[C@@H](CO)C(N)=O)(C3)NC(=O)[C@H](CC(C)C)NC(=O)[C@H](Cc3ccccc3)NC(=O)[C@H](C)NC(=O)[C@H](C)NC(=O)[C@H](Cc3cccc(C(=O)O)c3)NC(=O)[C@H](CC(=O)O)NC1=O)NC(=O)[C@H](CC(C)(C)C)NC(=O)[C@H](CC(=O)O)NC2=O (stereo partly drawn) [I-2226, Ac-PL3-Asp-Npg-B5-Asp-3COOHF-Ala-Ala-Phe-Leu-PyrS2-2F3MeF-3C1F-Ser-NH2] | 97 nM | 10600 nM | –
3 | CC(=O)N1CCC[C@]12CC=CCCCC1(CCCC=CCCCOC(=O)N3CC[C@@](C(=O)N[C@@H](Cc4ccccc4Cl)C(=O)N[C@@H](Cc4csc5ccccc45)C(=O)N[C@@H](CCC(N)=O)C(N)=O)(C3)NC(=O)[C@H](CC(N)=O)NC(=O)[C@H](Cc3ccccc3)NC(=O)[C@H](C)NC(=O)[C@H](C)NC(=O)[C@H](CNCCC(F)(F)F)NC(=O)[C@H](CC(=O)O)NC1=O)NC(=O)[C@H](CC(C)(C)C)NC(=O)[C@H](CC(=O)O)NC2=O (stereo partly drawn) [I-1457, Ac-PL3-Asp-Npg-B5-Asp-[Tfp]Dap-Ala-Ala-Phe-Asn-PyrS2-2C1F-BztA-Gln-NH2] | 43 nM | > 20000 nM | –
4 | CC(=O)N1CCC[C@]12CC=CCCCC1(CCCC=CCCCOC(=O)N3CC[C@@](C(=O)N[C@@H](Cc4ccsc4)C(=O)N[C@@H](Cc4csc5ccccc45)C(=O)N[C@@H](CCC(N)=O)C(N)=O)(C3)NC(=O)[C@H](CCO)NC(=O)[C@H](Cc3ccccc3)NC(=O)[C@H](C)NC(=O)[C@H](C)NC(=O)[C@H](Cc3c[nH]cn3)NC(=O)[C@H](CC(=O)O)NC1=O)NC(=O)[C@H](CC(C)(C)C)NC(=O)[C@H](CC(=O)O)NC2=O (stereo partly drawn) [I-1794, Ac-PL3-Asp-Npg-B5-Asp-His-Ala-Ala-Phe-Hse-PyrS2-3Thi-BztA-Gln-NH2] | 52 nM | 37700 nM | –
5 | CC(=O)N1CCC[C@]12CC=CCCCC1(CCCC=CCCCOC(=O)N3CC[C@@](C(=O)N[C@@H](Cc4ccccc4C(F)(F)F)C(=O)N[C@@H](Cc4csc5ccccc45)C(=O)N[C@@H](C)C(N)=O)(C3)NC(=O)[C@H](CC(C)C)NC(=O)[C@H](Cc3ccccc3)NC(=O)[C@H](C)NC(=O)[C@H](CCC(=O)N3CCN(CCCN(C)C)CC3)NC(=O)[C@H](Cc3cccc(C(=O)O)c3)NC(=O)[C@H](CC(=O)O)NC1=O)NC(=O)[C@H](CC(C)(C)C)NC(=O)[C@H](CC(=O)O)NC2=O (stereo partly drawn) [I-2323, Ac-PL3-Asp-Npg-B5-Asp-3COOHF-[Me2NPrPip]GlnR-Ala-Phe-Leu-PyrS2-2F3MeF-BztA-Ala-NH2] | 6 nM | 17700 nM | –
6 | CC(=O)N1CCC[C@]12CC=CCCCC1(CCCC=CCCCOC(=O)N3CC[C@@](C(=O)N[C@@H](Cc4ccccc4Cl)C(=O)N[C@@H](Cc4csc5ccccc45)C(=O)N[C@@H](CO)C(N)=O)(C3)NC(=O)[C@H](CO)NC(=O)[C@H](Cc3ccccc3)NC(=O)[C@H](C)NC(=O)[C@H](C)NC(=O)[C@H](Cc3cccc(C(=O)O)c3)NC(=O)[C@H](CC(=O)O)NC1=O)NC(=O)[C@H](CC(C)(C)C)NC(=O)[C@H](CC(=O)O)NC2=O (stereo partly drawn) [I-1903, Ac-PL3-Asp-Npg-B5-Asp-3COOHF-Ala-Ala-Phe-Ser-PyrS2-2C1F-BztA-Ser-NH2] | 14 nM | – | 6400 nM
7 | CC(=O)N1CCC[C@]12CC=CCCCC1(CCCC=CCCCCCC[C@@](C)(C(=O)N[C@@H](Cc3ccccc3)C(=O)N[C@@H](Cc3csc4ccccc34)C(=O)N[C@@H](CCC(N)=O)C(N)=O)NC(=O)[C@H](CC(C)C)NC(=O)[C@H](Cc3ccccc3)NC(=O)[C@H](C)NC(=O)[C@H](C)NC(=O)[C@H](CCC(=O)O)NC(=O)[C@H](CC(=O)O)NC1=O)NC(=O)[C@H](CCO)NC(=O)[C@H](CC(=O)O)NC2=O (stereo partly drawn) [I-1546, Ac-PL3-Asp-Hse-B5-Asp-Glu-Ala-Ala-Phe-Leu-S8-Phe-BztA-Gln-NH2] | 71 nM | 37900 nM | –
8 | CC(=O)N1CCC[C@]12CC=CCCCC1(CCCC=CCCCOC(=O)N3CC[C@@](C(=O)N[C@@H](Cc4ccccc4)C(=O)N[C@@H](Cc4csc5ccccc45)C(=O)N[C@@H](C)C(N)=O)(C3)NC(=O)[C@H](CC(N)=O)NC(=O)[C@H](Cc3ccccc3)NC(=O)[C@H](C)NC(=O)[C@H](Cc3c[nH]cn3)NC(=O)[C@H](CCC(N)=O)NC(=O)[C@H](CC(=O)O)NC1=O)NC(=O)[C@H](CC1CCCCC1)NC(=O)[C@H](CC(N)=O)NC2=O (stereo partly drawn) [I-2069, Ac-PL3-Asn-Cha-B5-Asp-Gln-His-Ala-Phe-Asn-PyrS2-Phe-BztA-Ala-NH2] | 256 nM | – | > 20000 nM
9 | CCCCCCSSCCOC(=O)C[C@@H]1NC(=O)[C@]2(CC=CCCCC3(CCCC=CCCCOC(=O)N4CC[C@@](C(=O)N[C@@H](Cc5ccsc5)C(=O)N[C@@H](Cc5csc6ccccc56)C(=O)N[C@@H](CCC(N)=O)C(N)=O)(C4)NC(=O)[C@H](CC(C)C)NC(=O)[C@H](Cc4ccccc4)NC(=O)[C@H](C)NC(=O)[C@H](C)NC(=O)[C@H](CC(=O)O)NC(=O)[C@H](CC(=O)O)NC3=O)NC(=O)[C@H](CC(C)(C)C)NC1=O)CCCN2C(C)=O (stereo partly drawn) [I-1959, Ac-PL3-[EtSSHex]AspE-Npg-B5-Asp-Asp-Ala-Ala-Phe-Leu-PyrS2-3Thi-BztA-Gln-NH2] | 412 nM | – | > 20000 nM
10 | CC(=O)N1CCC[C@]12CC=CCCCC1(CCCC=CCCCOC(=O)N3CC[C@@](C(=O)N[C@@H](Cc4ccsc4)C(=O)N[C@@H](Cc4csc5ccccc45)C(=O)N[C@@H](CCC(=O)N4CC[C@@H](N(C)C)C4)C(N)=O)(C3)NC(=O)[C@H](CC(C)C)NC(=O)[C@H](Cc3ccccc3)NC(=O)[C@H](C)NC(=O)[C@H](C)NC(=O)[C@H](CN(CC(=O)O)CC(F)(F)F)NC(=O)[C@H](CC(=O)O)NC1=O)NC(=O)[C@H](CC(C)(C)C)NC(=O)[C@H](CC(=O)O)NC2=O (stereo partly drawn) [I-1804, Ac-PL3-Asp-Npg-B5-Asp-TfeGA-Ala-Ala-Phe-Leu-PyrS2-3Thi-BztA-[RDMAPyr]GlnR-NH2] | 8 nM | 9400 nM | –
11 | CC(=O)N1CCC[C@]12CC=CCCCC1(CCCC=CCCCOC(=O)N3CC[C@@](C(=O)N[C@@H](Cc4ccccc4C(F)(F)F)C(=O)N[C@@H](Cc4csc5ccccc45)C(=O)N[C@@H](CCC(N)=O)C(=O)N[C@@H](CC(C)C)C(=O)N[C@@H](C(N)=O)[C@H](C)O)(C3)NC(=O)[C@H](CC(C)C)NC(=O)[C@H](Cc3ccccc3)NC(=O)[C@H](C)NC(=O)[C@H](C)NC(=O)[C@H](Cc3cccc(C(=O)O)c3)NC(=O)[C@H](CC(=O)O)NC1=O)NC(=O)[C@H](CC(C)(C)C)NC(=O)[C@H](CC(=O)O)NC2=O (stereo partly drawn) [I-2397, Ac-PL3-Asp-Npg-B5-Asp-3COOHF-Ala-Ala-Phe-Leu-PyrS2-2F3MeF-BztA-Gln-Leu-dThr-NH2] | 53 nM | 7800 nM | –
12 | CC(=O)N1CCC[C@]12CC=CCCCC1(CCCC=CCCCOC(=O)N3CC[C@@](C(=O)N[C@@H](Cc4ccsc4)C(=O)N[C@@H](Cc4csc5ccccc45)C(=O)N[C@@H](CCC(N)=O)C(N)=O)(C3)NC(=O)[C@H](CC(N)=O)NC(=O)[C@H](Cc3ccccc3)NC(=O)[C@H](C)NC(=O)[C@H](C)NC(=O)[C@H](CN(CCCC(F)(F)F)CC(=O)O)NC(=O)[C@H](CC(=O)O)NC1=O)NC(=O)[C@H](CC(C)(C)C)NC(=O)[C@H](CC(=O)O)NC2=O (stereo partly drawn) [I-1634, Ac-PL3-Asp-Npg-B5-Asp-[Tfb]GA-Ala-Ala-Phe-Asn-PyrS2-3Thi-BztA-Gln-NH2] | 9 nM | 16500 nM | –
13 | CC(=O)N1CCC[C@]12CC=CCCCC1(CCCC=CCCCOC(=O)N3CC[C@@](C(=O)N[C@@H](Cc4ccsc4)C(=O)N[C@@H](Cc4csc5ccccc45)C(=O)N[C@@H](Cc4ccccc4)C(N)=O)(C3)NC(=O)[C@H](CC(C)C)NC(=O)[C@H](Cc3ccccc3)NC(=O)[C@H](C)NC(=O)[C@H](CCCCNC(C)C)NC(=O)[C@H](CN(CC(=O)O)CC(F)(F)F)NC(=O)[C@H](CC(=O)O)NC1=O)NC(=O)[C@H](CC(C)(C)C)NC(=O)[C@H](CC(=O)O)NC2=O (stereo partly drawn) [I-1761, Ac-PL3-Asp-Npg-B5-Asp-TfeGA-iPrLys-Ala-Phe-Leu-PyrS2-3Thi-BztA-Phe-NH2] | 39 nM | > 20000 nM | –
